Values of other authors, collected in patent publication US20100160295A1, “TREATMENT OF RESTLESS LEG SYNDROME AND SLEEP DISORDERS” (SYNOSIA THERAPEUTICS, priority 2008, published 2010).

System: RLS patients
Details: RLS treatment; cited from earlier work

With `CCCN[C@H]1CCc2nc(N)sc2C1` [Pramipexole] as the molecule, how does the “major side effects reported” value read?
Its value is “insomnia, dizziness, constipation, asthenia and hallucinations”.
